In brackets after ≈: the same amount, converted by molar mass. Activity calls are given as the source filed them. The calls are words filed in the database; no cut-off is given here.

The text below walks through data of ChEMBL document CHEMBL1150910, “Binaphthalenone glycosides from African chewing sticks, Diospyros lycioides” (1998).

Experiment [1] concerns Prevotella intermedia. The experiment can be described thus: Antibacterial activity against Prevotella intermedia after 48 hrs by spectrophotometry. It is filed as functional, organism-based.
Experiment [2] deals with Streptococcus mutans. Briefly: Antibacterial activity against Streptococcus mutans Ingbritt after 48 hrs by spectrophotometry. In kind it is functional.
Experiment [3] relates to Streptococcus sanguinis. The experiment can be described thus: Antibacterial activity against Streptococcus sanguis after 48 hrs by spectrophotometry. It is filed as functional.
Experiment [4] has as its system Porphyromonas gingivalis. The experiment can be described thus: Antibacterial activity against Porphyromonas gingivalis after 48 hrs by spectrophotometry. It is filed as functional.

As for `CC1=C2c3c(C)cc(O)c4c(O[C@@H]5O[C@H](CO[C@@H]6OC[C@@H](O)[C@H](O)[C@H]6O)[C@@H](O)[C@H](O)[C@H]5O)ccc(c34)OC2(O)c2c(O[C@@H]3O[C@H](CO)[C@@H](O)[C@H](O)[C@H]3O)ccc(O)c2C1=O` (stereo not given in full), the result in experiment [1] and in experiment [4] was inactive. Besides, the MIC in experiment [2] and in experiment [3] was 1 µg/mL (≈ 1.18 µM) throughout.

On to `C[n+]1cc2c3c(ccc2c2ccc4cc5c(cc4c21)OCO5)OCO3` [SANGUINARIUM], for which the minimal inhibitory concentration (MIC) in experiment [2] and in experiment [4] was 15 µg/mL throughout.

Consider `CC1=C2c3c(C)cc(O)c4c(O[C@@H]5O[C@H](CO[C@@H]6OC[C@@H](O)[C@H](O)[C@H]6O)[C@@H](O)[C@H](O)[C@H]5O)ccc(c34)OC2(O)c2c(O[C@@H]3O[C@H](CO[C@@H]4OC[C@@H](O)[C@H](O)[C@H]4O)[C@@H](O)[C@H](O)[C@H]3O)ccc(O)c2C1=O` (stereo not given in full), for which the result in experiment [1] and in experiment [4] was inactive. Moreover, the MIC in experiment [2] and in experiment [3] was 1 µg/mL (≈ 1.02 µM) each time.
